Test results taken from patent US12275957B2, “Next generation designer liver organoids and their methods of preparation and use” (ARIZONA BOARD OF REGENTS ON BEHALF OF ARIZONA STATE …, priority 2018, dated 2025).
Where two headings read alike, the source gives them in different places.

What was measured:
[1] = test system: FXR signaling (CYP7A1, NROB2/SHP, FGF19 expression) in DesLO
Procedure: (§1) To further delineate the mechanism of FXR-mediated CYP7A1 repression, we tested FXR, NROB2, and FGF19 expression following GW4064 treatment.
(§2) Tissues were harvested and lysed by adding 500 μL Trizol (Life Technologies) directly to the tissue culture well and freezing at −80C. For extraction, lysate was thawed on ice, 100 μL chloroform was added, vortexed for 30 seconds, and centrifuged at 12,000 g for 15 minutes at 4° C. After centrifugation the aqueous phase was transferred to a Qiagen gDNA eliminator column and centrifuged at 10,000 g for 1 minute at 4° C. The flow-through was mixed with an equal volume of 70% EtOH and transferred to an RNEasy mini spin column. The manufacturer protocol for the RNEasy Plus Mini Kit (QIAGEN) was followed for the rest of the procedure. cDNA was synthesized using the high Capacity cDNA reverse transcription (Applied Biosystems). qRT-PCR was performed using the SYBR Green intercalating dye (ThermoFisher Scientific) and previously validated primers (IDT). Expression was normalized to 18S ribosomal RNA and relative gene expression was calculated using 2^−ΔΔCT method.

[2] = test system: Desmin positive stellate-like cells in DesLO; test: Fibrogenesis model: Desmin immunofluorescence and qRT-PCR; format: cell-based, human; conditions: for Desmin positive population (immunofluorescence staining): 5 ng/mL TGFB1 for 3 days
Source text: Multicellular DesLO as a Model for Fibrogenesis: Hepatic fibrosis is a maladaptive multicellular response of liver that is characterized by an excessive accumulation of extracellular matrix. It is a wound healing process, largely mediated by hepatic stellate cells (liver pericytes) which proliferate, deposit collagen, and generate scar tissue in response to injury. Since DesLOs contain a population of stellate-like cells we assessed whether this cell population respond to classical fibrotic stimuli. We induced fibrogenesis via transforming growth factor beta-1 (TGFβ1) or a combination of TGFβ1 and fetal bovine serum (FBS) supplementation to the culture medium. […] It is known that tissue culture treated polystyrene (TCTP) can increase cell stress and stellate cell proliferation.
Cells were grown on Matrigel-coated 8 mm or 12 mm diameter circular glass coverslips and fixed for 20 min in 4% paraformaldehyde (Electron Microscopy Sciences) at room temperature. Coverslips were then washed three times in 200 μl PBS droplets on Parafilm (Pechiney Plastic Packaging Company) followed by 15 min permeabilization in 100 μl of 0.2% Triton X-100 in PBS. Subsequently the coverslips were washed three times in 200 μl in washing buffer (0.05% Tween-20 in PBS) for 5 min and blocked for 20 min in 200 μl wash buffer plus 5% normal donkey serum (Jackson ImmunoResearch Laboratories). The incubation with the primary antibodies was performed for 1 h at room temperature in 30 μl of 5% normal donkey serum in PBS followed by three washes in 200 μl in PBS for 5 min each. The incubation with the secondary antibodies was performed for 1 h at room temperature in 30 μl of 5% normal donkey serum in PBS followed by three washes in 200 μl in PBS for 5 min. Finally, the coverslips were mounted on microscopy glass slides using ProLong Diamond Antifade (Life Technologies, USA), cured overnight at room temperature and then sealed with nail polish. Antibody list and concentrations are included in the supplement.

[3] = test system: FXR signaling (CYP7A1, NROB2/SHP, FGF19 expression) in FeLO; test: qRT-PCR of bile acid synthesis / FXR pathway genes in FeLO after addition of FXR agonist; conditions: FeLO cultures
Procedure: as §1, §2

[4] = test system: FXR signaling (CYP7A1, NROB2/SHP, FGF19 expression) in DesLO; test: qRT-PCR of bile acid synthesis / FXR pathway genes in DesLO after addition of FXR agonist, bile acid or FGF19
Procedure: as §1, §2

[5] = test system: bile acid synthesis in DesLO; test: Total bile acid assay in media; format: cell-based, human; conditions: addition of GW4064
Procedure: The cell supernatant was assessed at multiple dilutions to optimize detection, and the assay was performed according to the manufacturer's protocol.

Molecule: C[C@H](CCC(=O)O)[C@H]1CC[C@H]2[C@@H]3[C@H](O)C[C@@H]4C[C@H](O)CC[C@]4(C)[C@H]3CC[C@]12C [CDCA, chenodeoxycholic acid]
- CYP7A1 expression change (qRT-PCR) [1]: expected downregulation of CYP7A1

Molecule: transforming growth factor beta-1 [TGFβ1]
- Desmin positive population (immunofluorescence staining) ([2]; DesLO, versus vehicle control): visibly expanded
- Desmin positive population (immunofluorescence staining) ([2]; DesLO, versus vehicle control, listed as TGFB1): increase in expression
- Desmin levels (qRT-PCR) ([2]; DesLO, versus vehicle control): increase
- response to TGFβ1 treatment (Desmin qRT-PCR) ([2]; both FeLO and DesLO): responded modestly

Molecule: CC(C)c1onc(-c2c(Cl)cccc2Cl)c1COc1ccc(/C=C/c2cccc(C(=O)O)c2)c(Cl)c1 [GW4064]
- upregulation of SHP and FGF19 / CYP7A1 repression ([3]; GW4064 treatment): could not be captured
- CYP7A1 repression (real-time qPCR) ([3]; addition of GW4064): not repressed
- upregulation of FGF19 ([4]; GW4064 treatment): > 40 folds
- upregulation of SHP (NROB2) ([4]; GW4064 treatment): > 40 folds
- CYP7A1 repression (real-time qPCR) ([4]; addition of GW4064): 4 fold
- total bile acid in media [5]: repression of bile acid synthesis

Molecule: fibroblast growth factor 19 [FGF19]
- CYP7A1 expression change (qRT-PCR) ([4]; addition to the media): expected downregulation of CYP7A1
